# Values of other authors as cited in patent EP2343054A1, “Pellets and microparticles of pravastatin sodium and a process of making them” (LEK Pharmaceuticals d.d., priority 2010, dated 2011).
# Experiments:
# [1] = pH of 7.0
# [2] = pH 3 or less, as found in the stomach
compound,measurement,setting,value
CC[C@H](C)C(=O)O[C@H]1C[C@H](O)C=C2C=C[C@H](C)[C@H](CC[C@@H](O)C[C@@H](O)CC(=O)O)[C@H]21 [Pravastatin sodium],partition coefficient (octanol/water),[1],0.23
same,stability at low pH,[2],very unstable
"CC[C@H](C)C(=O)O[C@H]1C[C@H](O)C=C2C=C[C@H](C)[C@H](CC[C@@H](O)C[C@@H](O)CC(=O)O)[C@H]21 [pravastatin, (+)-(3R, 5R) -3,5-dihydroxy-7-[(1 S, 2S, 6S, 8S, 8aR)-6-hydroxy-2-methyl-8-[(S)-2-methylbutyryloxy]-1,2,6,7,8,8a-hexahydro-1-naphthyl] heptanoate]",average oral absorption,,34%
same,absolute bioavailability,oral,17%
